We go through 32 molecules from US10316035B2, “Triazolopyridine inhibitors of myeloperoxidase” (BRISTOL-MYERS SQUIBB COMPANY, priority 2015, dated 2019).

In the first assay the target is T1, myeloperoxidase (MPO) (Homo sapiens, UniProt P05164).
T1 sequence (P05164 49-745): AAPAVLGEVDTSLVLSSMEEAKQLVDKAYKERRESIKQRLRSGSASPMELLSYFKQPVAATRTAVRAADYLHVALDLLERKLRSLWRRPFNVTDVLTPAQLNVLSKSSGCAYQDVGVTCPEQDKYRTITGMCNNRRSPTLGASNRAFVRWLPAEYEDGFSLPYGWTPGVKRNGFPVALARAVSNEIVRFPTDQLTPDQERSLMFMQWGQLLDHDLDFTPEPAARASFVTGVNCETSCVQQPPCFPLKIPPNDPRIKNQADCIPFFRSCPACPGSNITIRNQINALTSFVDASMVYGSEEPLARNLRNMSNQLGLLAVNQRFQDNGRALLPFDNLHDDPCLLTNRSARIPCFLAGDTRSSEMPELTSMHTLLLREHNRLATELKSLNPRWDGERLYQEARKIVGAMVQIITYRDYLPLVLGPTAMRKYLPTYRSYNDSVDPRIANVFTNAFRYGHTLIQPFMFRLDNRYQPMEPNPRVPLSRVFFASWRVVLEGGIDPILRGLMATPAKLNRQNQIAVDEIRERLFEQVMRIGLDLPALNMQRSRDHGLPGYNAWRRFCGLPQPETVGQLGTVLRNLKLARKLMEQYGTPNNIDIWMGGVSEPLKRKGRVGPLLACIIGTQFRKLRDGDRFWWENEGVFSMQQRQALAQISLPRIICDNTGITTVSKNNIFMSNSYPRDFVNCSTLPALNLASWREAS
Kind of assay: MPO peroxidation assay (Amplex Red assay). In kind it is biochemical.
Settings: not given
The protocol:
MPO Peroxidation Assay (Amplex Red Assay)
MPO peroxidation activity was measured in 100 mM KPi (pH 7.4) by utilizing the non-fluorescent reagent Amplex Red (Invitrogen catalog # A12222) which can be oxidized to the highly fluorescent resorufin. Amplex Red is oxidized by the peroxidase action of MPO to resorufin. Reactions were carried out in 50 μL total volume by adding a 25 μL mixture of 200 pM myeloperoxidase and 40 nM H2O2(Sigma #349887) to 100 nL inhibitor in 100% DMSO in a 384 well Perkin Elmer Optiplate. Enzyme and compound were preincubated for ten minutes at room temperature.
After the ten minute preincubation, 25 μL of an Amplex Red mixture containing 200 μM Amplex Red and 10 mM H2O2 was added to the plate. Kinetic determinations were carried out immediately on a Perkin Elmer Envision (15 minute kinetic read, Ex: 535 nm, Em: 590 nm).
IC50 values were calculated by determining the slope of the linear portion of the kinetic trace ([…]), and using that calculated slope to determine % inhibition occurring at each concentration of inhibitor using the following equation:
[formula] where A=minimal Y value (activity level of inhibited sample), B=maximal Y value (activity level of uninhibited sample), C=Log IC50, D=Hill Slope, x=concentration of inhibitor. MPO Chlorination Assay (APF Assay)
Take `Cc1c(COc2cc(N)nc3[nH]nnc23)cccc1-c1cccc(F)c1` [Example 68, 7-((3′-Fluoro-2-methylbiphenyl-3-yl)methoxy)-3H-[1,2,3]triazolo[4,5-b]pyridin-5-amine]: the concentration for half-maximal inhibition (IC50) (as a rule, the concentration that inhibits the measured activity by half) is 0.001 to 0.1 µM.

In the case of `Nc1cc(OCc2cc(-c3cccc(F)c3)ccc2Cl)c2nn[nH]c2n1` [Example 70, 7-((4-Chloro-3′-fluorobiphenyl-3-yl)methoxy)-3H-[1,2,3]triazolo[4,5-b]pyridin-5-amine], the IC50 lay within 0.001 to 0.1 µM.

In turn, `Cn1cc(-c2cccc(COc3cc(N)nc4[nH]nnc34)c2)cn1` [Example 77, 7-(3-(1-Methyl-1H-pyrazol-4-yl)benzyloxy)-3H-[1,2,3]triazolo[4,5-b]pyridin-5-amine] registered a half-inhibitory concentration (IC50) of 0.001 to 0.1 µM.

In the case of `Cc1c(COc2cc(N)nc3[nH]nnc23)cccc1-c1ccn(C)n1` [Example 81, 7-(2-Methyl-3-(1-methyl-1H-pyrazol-3-yl)benzyloxy)-3H-[1,2,3]triazolo[4,5-b]pyridin-5-amine], the half-inhibitory concentration (IC50) is 0.001 to 0.1 µM.

In turn, `Nc1cc(OCc2cccc(-c3cccc(F)c3)c2)c2nn[nH]c2n1` [Example 91, 7-((3′-Fluorobiphenyl-3-yl)methoxy)-3H-[1,2,3]triazolo[4,5-b]pyridin-5-amine] showed an IC50 of 0.001 to 0.1 µM.

Take `Nc1cc(OCc2cccc(-c3ccccc3F)c2)c2nn[nH]c2n1` [Example 96, 7-((2′-Fluorobiphenyl-3-yl)methoxy)-3H-[1,2,3]triazolo[4,5-b]pyridin-5-amine]: the 50% inhibitory concentration (IC50) lay within 0.001 to 0.1 µM.

The same assay, now with this note: MPO peroxidation, potency range class; read-out: Amplex Red IC50.
Turning to `COc1c(COc2cc(N)nc3[nH]nnc23)cccc1-c1cccc(F)c1` [Example 67, 7-((3′-Fluoro-2-methoxybiphenyl-3-yl)methoxy)-3H-[1,2,3]triazolo[4,5-b]pyridin-5-amine], the IC50 lay within 0.101 to 0.999 µM.

As for `Cc1c(COc2cc(N)nc3[nH]nnc23)cccc1-c1ccccc1` [Example 69, 7-((2-Methylbiphenyl-3-yl)methoxy)-3H-[1,2,3]triazolo[4,5-b]pyridin-5-amine], the half-inhibitory concentration (IC50) lay within 0.001 to 0.1 µM.

For the molecule `Nc1cc(OCc2cc(-c3cccc(F)c3)ccc2F)c2nn[nH]c2n1` [Example 71, 7-((3′,4-Difluorobiphenyl-3-yl)methoxy)-3H-[1,2,3]triazolo[4,5-b]pyridin-5-amine], the IC50 was 0.001 to 0.1 µM.

`Nc1cc(OCc2cccc(-c3cccc(F)c3)c2F)c2nn[nH]c2n1` [Example 72, 7-((2,3′-Difluorobiphenyl-3-yl)methoxy)-3H-[1,2,3]triazolo[4,5-b]pyridin-5-amine]: the IC50 lay within 0.001 to 0.1 µM.

Consider `COc1ccccc1-c1ccc(F)c(COc2cc(N)nc3[nH]nnc23)c1F` [Example 73, 7-((2,4-Difluoro-2′-methoxybiphenyl-3-yl)methoxy)-3H-[1,2,3]triazolo[4,5-b]pyridin-5-amine], for which the half-inhibitory concentration (IC50) is 0.001 to 0.1 µM.

For the molecule `Nc1cc(OCc2cccc(-c3cnn(Cc4ccccc4)c3)c2)c2nn[nH]c2n1` [Example 74, 7-(3-(1-Benzyl-1H-pyrazol-4-yl)benzyloxy)-3H-[1,2,3]triazolo[4,5-b]pyridin-5-amine], the IC50 fell in the range of 0.001 to 0.1 µM.

As for `Nc1cc(OCc2cccc(-c3ccn(Cc4ccccc4)n3)c2)c2nn[nH]c2n1` [Example 75, 7-(3-(1-Benzyl-1H-pyrazol-3-yl)benzyloxy)-3H-[1,2,3]triazolo[4,5-b]pyridin-5-amine], the IC50 was 0.101 to 0.999 µM.

For the molecule `Cn1nccc1-c1cccc(COc2cc(N)nc3[nH]nnc23)c1` [Example 78, 7-(3-(1-Methyl-1H-pyrazol-5-yl)benzyloxy)-3H-[1,2,3]triazolo[4,5-b]pyridin-5-amine], the half-maximal inhibitory concentration (IC50) fell in the range of 0.001 to 0.1 µM.

For the molecule `Cn1nc(C(F)(F)F)cc1-c1cccc(COc2cc(N)nc3[nH]nnc23)c1` [Example 79, 7-(3-(1-Methyl-3-(trifluoromethyl)-1H-pyrazol-5-yl)benzyloxy)-3H-[1,2,3]triazolo[4,5-b]pyridin-5-amine], the IC50 lay within 0.101 to 0.999 µM.

For the molecule `COc1c(COc2cc(N)nc3[nH]nnc23)cccc1-c1ccn(C)n1` [Example 80, 7-(2-Methoxy-3-(1-methyl-1H-pyrazol-3-yl)benzyloxy)-3H-[1,2,3]triazolo[4,5-b]pyridin-5-amine], the half-inhibitory concentration (IC50) was 0.101 to 0.999 µM.

Regarding `CC(C)Cn1cc(-c2ccc(F)c(COc3cc(N)nc4[nH]nnc34)c2)cn1` [Example 82, 7-(2-Fluoro-5-(1-isobutyl-1H-pyrazol-4-yl)benzyloxy)-3H-[1,2,3]triazolo[4,5-b]pyridin-5-amine], the half-inhibitory concentration (IC50) was in the range of 0.001 to 0.1 µM.

`COc1ccc(-n2cncn2)cc1COc1cc(N)nc2[nH]nnc12` [Example 83, 7-(2-Methoxy-5-(1H-1,2,4-triazol-1-yl)benzyloxy)-3H-[1,2,3]triazolo[4,5-b]pyridin-5-amine]: the concentration for half-maximal inhibition (IC50) fell in the range of 0.001 to 0.1 µM.

On to `Cc1cn(-c2cccc(COc3cc(N)nc4[nH]nnc34)c2)cn1` [Example 84, 7-(3-(4-Methyl-1H-imidazol-1-yl)benzyloxy)-3H-[1,2,3]triazolo[4,5-b]pyridin-5-amine], for which the 50% inhibitory concentration (IC50) lay within 0.101 to 0.999 µM.

`Cc1ccn(-c2cccc(COc3cc(N)nc4[nH]nnc34)c2)n1` [Example 85, 7-(3-(3-Methyl-1H-pyrazol-1-yl)benzyloxy)-3H-[1,2,3]triazolo[4,5-b]pyridin-5-amine]: the 50% inhibitory concentration (IC50) was in the range of 0.101 to 0.999 µM.

On to `Cc1c(COc2cc(N)nc3[nH]nnc23)cccc1-n1cncn1` [Example 86, 7-(2-Methyl-3-(1H-1,2,4-triazol-1-yl)benzyloxy)-3H-[1,2,3]triazolo[4,5-b]pyridin-5-amine], for which the half-maximal inhibitory concentration (IC50) was 0.001 to 0.1 µM.

On to `COc1ccc(-n2cnc(C)n2)cc1COc1cc(N)nc2[nH]nnc12` [Example 87, 7-(2-Methoxy-5-(3-methyl-1H-1,2,4-triazol-1-yl)benzyloxy)-3H-[1,2,3]triazolo[4,5-b]pyridin-5-amine], for which the half-maximal inhibitory concentration (IC50) lay within 1 to 10 µM.

`CCOc1ccc(Cl)cc1COc1cc(N)nc2[nH]nnc12` [Example 88, 7-(5-Chloro-2-ethoxybenzyloxy)-3H-[1,2,3]triazolo[4,5-b]pyridin-5-amine]: the half-inhibitory concentration (IC50) is 0.001 to 0.1 µM.

In the case of `Nc1cc(OCc2cc(Cl)ccc2OCC2CCCO2)c2nn[nH]c2n1` (centres unmarked) [Example 89, 7-(5-Chloro-2-((tetrahydrofuran-2-yl)methoxy)benzyloxy)-3H-[1,2,3]triazolo[4,5-b]pyridin-5-amine], the IC50 was 0.001 to 0.1 µM.

As to `Nc1cc(OCC2CCC(c3ccccc3)CC2)c2nn[nH]c2n1` (centres unmarked) [Example 90, 7-((4-Phenylcyclohexyl)methoxy)-3H-[1,2,3]triazolo[4,5-b]pyridin-5-amine], the IC50 was 0.001 to 0.1 µM.

Regarding `N#Cc1cccc(-c2cccc(COc3cc(N)nc4[nH]nnc34)c2)c1` [Example 92, 3′-((5-Amino-3H-[1,2,3]triazolo[4,5-b]pyridin-7-yloxy)methyl)biphenyl-3-carbonitrile], the IC50 is 0.001 to 0.1 µM.

On to `Nc1cc(OCc2cccc(-c3ccccc3Cl)c2)c2nn[nH]c2n1` [Example 93, 7-((2′-Chlorobiphenyl-3-yl)methoxy)-3H-[1,2,3]triazolo[4,5-b]pyridin-5-amine], for which the concentration for half-maximal inhibition (IC50) lay within 0.001 to 0.1 µM.

In the case of `Nc1cc(OCc2cccc(-c3ccc(F)cc3)c2)c2nn[nH]c2n1` [Example 95, 7-((4′-Fluorobiphenyl-3-yl)methoxy)-3H-[1,2,3]triazolo[4,5-b]pyridin-5-amine], the IC50 lay within 0.001 to 0.1 µM.

Turning to `Nc1cc(OCc2cccc(-c3ccc(Cl)cc3)c2)c2nn[nH]c2n1` [Example 97, 7-((4′-Chlorobiphenyl-3-yl)methoxy)-3H-[1,2,3]triazolo[4,5-b]pyridin-5-amine], the IC50 is 0.101 to 0.999 µM.

For the molecule `Nc1cc(OCc2cccc(-c3ccc(-c4ccn[nH]4)cc3)c2)c2nn[nH]c2n1` [Example 98, 7-((4′-(1H-Pyrazol-5-yl)biphenyl-3-yl)methoxy)-3H-[1,2,3]triazolo[4,5-b]pyridin-5-amine], the IC50 is 0.001 to 0.1 µM.

On to `CN1CCN(c2ccc(-c3cccc(COc4cc(N)nc5[nH]nnc45)c3)cc2)CC1` [Example 99, 7-((4′-(4-Methylpiperazin-1-yl)biphenyl-3-yl)methoxy)-3H-[1,2,3]triazolo[4,5-b]pyridin-5-amine], for which the half-inhibitory concentration (IC50) lay within 0.101 to 0.999 µM.

Turning to `Nc1cc(OCc2cccc(-c3ccc(NC(=O)c4ccccc4)cc3)c2)c2nn[nH]c2n1` [Example 100, N-(3′-((5-Amino-3H-[1,2,3]triazolo[4,5-b]pyridin-7-yloxy)methyl)biphenyl-4-yl)benzamide], the IC50 was in the range of 0.001 to 0.1 µM.
